# Measured values taken from PMC6286779, “HLA-A2-Restricted Epitopes Identified from MTA1 Could Elicit Antigen-Specific Cytotoxic T Lymphocyte Response” (Journal of Immunology Research, 2018).
# No end group written: not given here.
# Columns and labels:
# SW620 (HLA-A2+, MTA1+) = experiment: LDH cytotoxicity assay, CTLs induced in vitro; assay type: cell-based, human; details: CTLs induced by peptide 10 μg/ml from donor no. 6; E/T 50 : 1; LDH release, 4 h; n = 3
# Description: (§1) CTL induction in vitro was conducted according to the procedures previously described. Briefly, PBMCs from eight HLA-A^∗02^+ healthy donors were isolated using Ficoll-Paque density gradient centrifugation and resuspended in RPMI 1640 medium supplemented with 10% FBS. Then, PBMCs were stimulated three times (once a week) with the indicated peptides (10 μg/ml) or protein MTA1(1–283) (at final concentrations of 0, 1, 10, 30, and 50 μg/ml) for 21 days. Human recombinant cytokine interleukin-2 (IL-2) (50 U/ml) was added on day 3 and 1 day after each stimulation. The cytotoxic assay (lactate dehydrogenase (LDH) assay) and IFN-γ secretion enzyme-linked immunospot (ELISPOT) assay were performed on day 21.
# (§2) Cytotoxic activity of induced T cells was tested based on the quantitation of LDH release using the nonradioactive cytotoxicity assay kit (Promega, USA) at the gradient E/T ratio [29, 31]. Target cells which expressed different levels of MTA1 or peptide-pulsed T2 cells were used as target cells. The anti-human HLA-A2 antibody (BB7.2) was added 30 min before adding effector cells to determine the HLA restriction. Target cells (5 × 10^3/well) were cocultured with the effector cells at 37°C for 4 h. The percentage of specific lysis of the target cells was determined using the equation: percentage of specific lysis = [(experimental release − effector spontaneous release − target spontaneous release)/(target maximum release − target spontaneous release)] × 100.
# MCF-7 (HLA-A2+, MTA1+) = experiment: LDH cytotoxicity assay, CTLs induced in vitro; assay type: cell-based, human; details: peptide-induced CTLs from healthy donors, E/T 50 : 1
# Description: as §1, §2
# [1] = system: MDA-MB-231 (HLA-A2+, MTA1+); experiment: LDH cytotoxicity assay, CTLs induced in vitro; assay type: cell-based, human; details: CTLs induced by peptide 10 μg/ml from donor no. 6; E/T 50 : 1; LDH release, 4 h; n = 3
# Description: as §1, §2
# HT-29 (HLA-A2−, MTA1+) = experiment: LDH cytotoxicity assay, CTLs induced in vitro; assay type: cell-based, human; details: peptide-induced CTLs, HLA-A2-negative control target
# Description: as §1, §2
# HLA-A*0201 molecules = HLA-A*0201 molecules (Homo sapiens, UniProt P04439, D140Y/D185E/D98H/E176V/E277Q/G131W/G231S/I119V/I121R/I166T/I218V/L300P/L318F/N151K/N90K/P208A/P217A/Q86G/Q94H/R138H/R169H/T345S); experiment: T2 binding assay; details: T2 cells 1 × 10^6 cells/ml, peptide 50 μg/ml, 3 μg/ml β2-M, serum-free RPMI 1640, 18 h, 37°C; BB7.2 staining, flow cytometry; FI > 1.5 = high affinity
# Description: The binding affinity of these peptides to HLA-A^∗0201 was evaluated according to our previous study. Briefly, T2 cells (1 × 10^6 cells/ml) were incubated with each peptide (50 μg/ml) and 3 μg/ml human β2-microglobulin (β2-M, Merck, Germany) in serum-free RPMI 1640 medium for 18 h at 37°C in a humidified atmosphere of 5% CO2. Then cells were washed twice and incubated with the anti-human HLA-A2 PE-Cyanine7 mAb, BB7.2 (eBioscience, USA) for 0.5 h at 4°C. Finally, cells were collected, washed, and analyzed using flow cytometry (FACSCalibur, Becton Dickinson, USA). The fluorescence index (FI) calculation was performed as follows: FI = [(mean fluorescence intensity (MFI) of the given peptide − background) − (MFI of the PBS control group − background)]/[(MFI of the PBS control group − background)]. The MFI value of cells untreated with peptides and antibodies was employed as background. Peptides with an FI factor of more than 1.5 were classed as high-affinity candidates.
# [2] = system: SW620 incubated with an anti-human HLA-A2 antibody; experiment: LDH cytotoxicity assay, CTLs induced in vitro, HLA-A2 blocked; assay type: cell-based; details: peptide-induced CTLs, BB7.2 added 30 min before effectors
# Description: as §1, §2
# [3] = molecular target: T1, peptide/HLA-A*0201 complexes (Homo sapiens, UniProt P04439, D140Y/D185E/D98H/E176V/E277Q/G131W/G231S/I119V/I121R/I166T/I218V/L300P/L318F/N151K/N90K/P208A/P217A/Q86G/Q94H/R138H/R169H/T345S); experiment: T2 stabilization (stability) assay; assay type: binding; details: T2 cells, peptide 50 μg/ml, 18 h, then brefeldin A 10 μg/ml 1 h; read at 0, 2, 4, 6 h, 37°C; flow cytometry
# T1 construct: endogenous in cells; host or cells: T2 lymphoblastic cell line (TAP-deficient)
# Description: For the stability assay, each of the selected peptides (50 μg/ml) was incubated with T2 cells (1 × 10^6 cells/ml) for 18 h in serum-free RPMI 1640 medium supplemented with 3 μg/ml β2-M at 37°C. Thereafter, cells were washed twice and incubated with brefeldin A (10 μg/ml, eBiosciences, USA) for 1 h. Subsequently, the cells were washed and incubated for 0, 2, 4, and 6 h at 37°C. Cells were washed twice, stained with BB7.2 for 0.5 h at 4°C. Finally, cells were collected, washed, and analyzed by flow cytometry. Dissociation complex 50 (DC50) was defined as time (t) required for the loss of 50% of the HLA-A^∗0201/peptide complexes stabilized at 0 h.
# [4] = system: PBMCs from HLA-A*02+ healthy donors; experiment: IFN-γ ELISPOT of CTLs induced in vitro; assay type: cell-based, human; details: PBMCs of six donors stimulated with peptide 10 μg/ml three times, day 21; stimulators peptide-pulsed T2 cells (50 μg/ml); 1 × 10^5 effectors; mean, n = 6
# Description: as §1
# The ELISPOT assay was performed using a commercial kit (Dakewe, China) according to the procedures previously described. Briefly, T2 cells incubated with/without candidate peptide (50 μg/ml) were used as the stimulating cells, effector cells (1 × 10^5) and stimulator cells (peptide-pulsed T2 cells or T2 cells only, 1 × 10^5) were seeded into the 96-well plate precoated with an anti-human (or anti-mouse) IFN-γ antibody. After incubation at 37°C for 18 h, cells were removed, and plates were processed for analysis as instructed. The spot number was determined automatically using a computer-assisted spot analyzer (Dakewe, China).
# [5] = system: Het-1A (HLA-A2+, MTA1low); experiment: LDH cytotoxicity assay, CTLs induced in vitro; assay type: cell-based, human; details: peptide-induced CD8+ T cells, E/T 50 : 1
# Description: as §1, §2
# [6] = molecular target: HLA-A*0201 molecule on T2 cells (human (endogenous in T2) | human); experiment: flow cytometry on cells; stability assay: T2 cells loaded with peptide (50 μg/ml) and 3 μg/ml β2-M for 18 h at 37°C, brefeldin A (10 μg/ml) 1 h, then 0, 2, 4 and 6 h at 37°C; stained with BB7.2; DC50 = time for the loss of 50% of the HLA-A*0201/peptide complexes stabilized at 0 h
# [7] = molecular target: HLA-A*0201 molecule on T2 cells (human (endogenous in T2) | human); experiment: flow cytometry on cells; T2 binding assay: T2 cells (1 x 10^6 cells/ml) with peptide (50 μg/ml) and 3 μg/ml human β2-M in serum-free RPMI 1640, 18 h, 37°C; surface HLA-A2 stained with BB7.2 PE-Cyanine7; fluorescence index (FI); FI > 1.5 classed as high affinity
Molecule,FI (fluorescence index) (HLA-A*0201 molecules),DC50 [6],FI (fluorescence index) [7],further results
ALADKHATL [Peptide P57],1.56,–,–,"lysis rate of SW620 cells (SW620 (HLA-A2+, MTA1+)): 45.8%; rate of MCF-7 cell lysis (MCF-7 (HLA-A2+, MTA1+)): 17.6%; lysis rate of MDA-MB-231 cells [1]: 30.5%; lysis of HT-29 cells (HT-29 (HLA-A2−, MTA1+)): did not lyse; lysis of SW620 cells incubated with an HLA-A2 blocking antibody [2]: did not lyse; DC50: time required for the loss of 50% of the HLA-A*0201/peptide complexes stabilized at 0 h [3]: >6 h; IFN-γ ELISPOT mean spot intensities [4]: 543"
FLSRQLESL [Peptide P109],2.61,–,–,"rate of Het-1A cell lysis [5]: 11.9%; lysis rate of SW620 cells (SW620 (HLA-A2+, MTA1+)): 65.5%; rate of MCF-7 cell lysis (MCF-7 (HLA-A2+, MTA1+)): 23.8%; lysis rate of MDA-MB-231 cells [1]: 32.2%; lysis of HT-29 cells (HT-29 (HLA-A2−, MTA1+)): did not lyse; lysis of SW620 cells incubated with an HLA-A2 blocking antibody [2]: did not lyse; DC50: time required for the loss of 50% of the HLA-A*0201/peptide complexes stabilized at 0 h [3]: >6 h; IFN-γ ELISPOT mean spot intensities [4]: 453"
HBcAg 18-27 peptide,–,> 6 h,–,–
"ILIGETIKI [COX-2_321-329, reference compound]",1.905,–,–,DC50: time required for the loss of 50% of the HLA-A*0201/peptide complexes stabilized at 0 h [3]: >6 h
YQADITDLL [Peptide P173],0.22,–,–,–
ILIGETIKI (not fully specified) [cyclooxygenase-2 (COX-2) 321-329 peptide],–,> 6 h,1.91,–
FLSRQLESL [MTA1 peptide P109],–,> 6 h,2.61,–
ALADKHATL [MTA1 peptide P57],–,> 6 h,1.56,–
YQADITDLL [MTA1 peptide P173],–,–,0.22,–
YLIRRIEEL [MTA1 peptide P22],–,> 2 h,2.08,–
TLLNETESL [MTA1 peptide P129],–,> 6 h,1.28,–
